Where “and” joins values, the source holds several entries; their conditions need not be identical. Equal values may be shown once. ± gives the expanded uncertainty stated by the source.
Assays:
[1] = Liquid, Vibrating tube method
[2] = molar heat capacity at constant pressure; details: 101 kPa, Liquid, Small sample (50 mg) DSC

CCCCC(=O)[O-].C[NH2+]CCO [2-hydroxy-N-methylethanaminium pentanoate]
mass density [kg/m3], [1]
Details | 298.15 K | 308.15 K | 318.15 K | 328.15 K | 338.15 K | 348.15 K | 358.15 K
100 kPa | 1009.33 ± 2 | 1002.78 ± 2 | 996.28 ± 2 | 989.85 ± 2 | 983.48 ± 2 | 977.17 ± 2 | 970.92 ± 2
5000 kPa | 1011.62 ± 2 | 1005.23 ± 2 | 998.89 ± 2 | 992.6 ± 2 | 986.35 ± 2 | 980.15 ± 2 | 974 ± 2
10000 kPa | 1014.08 ± 2 | 1007.73 ± 2 | 1001.45 ± 2 | 995.24 ± 2 | 989.11 ± 2 | 983.05 ± 2 | 977.05 ± 2
15000 kPa | 1016.41 ± 2 | 1010.14 ± 2 | 1003.96 ± 2 | 997.85 ± 2 | 991.83 ± 2 | 985.88 ± 2 | 980.01 ± 2
20000 kPa | 1018.67 ± 2 | 1012.49 ± 2 | 1006.39 ± 2 | 1000.37 ± 2 | 994.43 ± 2 | 988.57 ± 2 | 982.79 ± 2
25000 kPa | 1020.85 ± 2 | 1014.74 ± 2 | 1008.72 ± 2 | 1002.79 ± 2 | 996.97 ± 2 | 991.23 ± 2 | 985.59 ± 2

[2]
Details | molar heat capacity at constant pressure
283.15 K | 384.8 ± 16 J/K/mol
287.15 K | 396.1 ± 17 J/K/mol and 394.2 ± 17 J/K/mol
288.15 K | 395.6 ± 17 J/K/mol [middle of 5 runs]
289.15 K | 396 ± 17 J/K/mol [middle of 4 runs]
290.15 K | 396.8 ± 17 J/K/mol [middle of 4 runs]
291.15 K | 397.4 ± 17 J/K/mol [middle of 4 runs]
292.15 K | 397.9 ± 17 J/K/mol [middle of 4 runs]
293.15 K | 397.7 ± 17 J/K/mol [middle of 5 runs]
294.15 K | 398.4 ± 17 J/K/mol [middle of 4 runs]
295.15 K | 399 ± 17 J/K/mol [middle of 4 runs]
296.15 K | 399.3 ± 17 J/K/mol and 397.9 ± 17 J/K/mol and 400.7 ± 17 J/K/mol
297.15 K | 400 ± 17 J/K/mol [middle of 4 runs]
298.15 K | 400.6 ± 17 J/K/mol [middle of 4 runs]
299.15 K | 402.3 ± 17 J/K/mol and 401.1 ± 17 J/K/mol and 399.5 ± 17 J/K/mol
300.15 K | 401.8 ± 17 J/K/mol [middle of 4 runs]
301.15 K | 402.3 ± 17 J/K/mol [middle of 4 runs]
302.15 K | 402.7 ± 17 J/K/mol [middle of 4 runs]
303.15 K | 402.3 ± 17 J/K/mol [middle of 5 runs]
304.15 K | 403.2 ± 17 J/K/mol [middle of 4 runs]
305.15 K | 403.6 ± 17 J/K/mol [middle of 4 runs]
306.15 K | 405 ± 17 J/K/mol and 403 ± 17 J/K/mol and 402.3 ± 17 J/K/mol
307.15 K | 402.7 ± 17 J/K/mol
308.15 K | 401.6 ± 17 J/K/mol and 403 ± 17 J/K/mol
309.15 K | 403.4 ± 17 J/K/mol
310.15 K | 403.8 ± 17 J/K/mol
311.15 K | 404.3 ± 17 J/K/mol
312.15 K | 404.6 ± 17 J/K/mol
313.15 K | 405 ± 17 J/K/mol and 405.2 ± 17 J/K/mol
314.15 K | 405.5 ± 17 J/K/mol
315.15 K | 405.7 ± 17 J/K/mol
316.15 K | 406.1 ± 17 J/K/mol
317.15 K | 406.1 ± 17 J/K/mol
318.15 K | 408.9 ± 17 J/K/mol and 406.4 ± 17 J/K/mol
319.15 K | 406.8 ± 17 J/K/mol
320.15 K | 407.1 ± 17 J/K/mol
321.15 K | 407.5 ± 17 J/K/mol
322.15 K | 407.8 ± 17 J/K/mol
323.15 K | 412.8 ± 18 J/K/mol and 408.2 ± 17 J/K/mol
324.15 K | 408.5 ± 17 J/K/mol
325.15 K | 408.9 ± 17 J/K/mol
328.15 K | 416.7 ± 18 J/K/mol
333.15 K | 420.6 ± 18 J/K/mol

CCC(=O)[O-].C[NH2+]CCO [2-hydroxy-N-methylethanaminium propionate]
mass density [kg/m3], [1]
Details | 100 kPa | 2000 kPa | 3000 kPa | 5000 kPa | 10000 kPa | 15000 kPa | 20000 kPa | 25000 kPa
298.15 K | 1065.75 ± 2 | 1066.51 ± 2 | 1066.95 ± 2 | 1067.8 ± 2 | 1069.86 ± 2 | 1071.89 ± 2 | 1073.87 ± 2 | 1075.79 ± 2
303.15 K | 1062.59 ± 2 | 1063.37 ± 2 | 1063.82 ± 2 | 1064.69 ± 2 | 1066.79 ± 2 | 1068.87 ± 2 | 1070.88 ± 2 | 1072.86 ± 2
308.15 K | 1059.41 ± 2 | 1060.21 ± 2 | 1060.67 ± 2 | 1061.55 ± 2 | 1063.7 ± 2 | 1065.82 ± 2 | 1067.88 ± 2 | 1069.9 ± 2
313.15 K | 1056.21 ± 2 | 1057.03 ± 2 | 1057.51 ± 2 | 1058.4 ± 2 | 1060.6 ± 2 | 1062.76 ± 2 | 1064.86 ± 2 | 1066.92 ± 2
318.15 K | 1052.99 ± 2 | 1053.83 ± 2 | 1054.32 ± 2 | 1055.23 ± 2 | 1057.47 ± 2 | 1059.68 ± 2 | 1061.82 ± 2 | 1063.93 ± 2
323.15 K | 1049.76 ± 2 | 1050.61 ± 2 | 1051.11 ± 2 | 1052.04 ± 2 | 1054.32 ± 2 | 1056.58 ± 2 | 1058.76 ± 2 | 1060.91 ± 2
328.15 K | 1046.5 ± 2 | 1047.37 ± 2 | 1047.89 ± 2 | 1048.84 ± 2 | 1051.16 ± 2 | 1053.47 ± 2 | 1055.68 ± 2 | 1057.87 ± 2
333.15 K | 1043.23 ± 2 | 1044.11 ± 2 | 1044.64 ± 2 | 1045.61 ± 2 | 1047.97 ± 2 | 1050.33 ± 2 | 1052.59 ± 2 | 1054.82 ± 2
338.15 K | 1039.93 ± 2 | 1040.84 ± 2 | 1041.38 ± 2 | 1042.36 ± 2 | 1044.77 ± 2 | 1047.17 ± 2 | 1049.47 ± 2 | 1051.74 ± 2
343.15 K | 1036.62 ± 2 | 1037.54 ± 2 | 1038.1 ± 2 | 1039.1 ± 2 | 1041.55 ± 2 | 1043.99 ± 2 | 1046.33 ± 2 | 1048.65 ± 2
348.15 K | 1033.29 ± 2 | 1034.23 ± 2 | 1034.8 ± 2 | 1035.81 ± 2 | 1038.3 ± 2 | 1040.8 ± 2 | 1043.17 ± 2 | 1045.54 ± 2
353.15 K | 1029.94 ± 2 | 1030.9 ± 2 | 1031.48 ± 2 | 1032.51 ± 2 | 1035.04 ± 2 | 1037.58 ± 2 | 1040 ± 2 | 1042.4 ± 2
358.15 K | 1026.57 ± 2 | 1027.55 ± 2 | 1028.14 ± 2 | 1029.19 ± 2 | 1031.76 ± 2 | 1034.35 ± 2 | 1036.8 ± 2 | 1039.25 ± 2

[2]
Details | molar heat capacity at constant pressure
287.15 K | 322.8 ± 14 J/K/mol
288.15 K | 324.3 ± 14 J/K/mol and 323.1 ± 14 J/K/mol and 322.8 ± 14 J/K/mol
289.15 K | 324.5 ± 14 J/K/mol [middle of 4 runs]
290.15 K | 324.8 ± 14 J/K/mol [middle of 5 runs]
291.15 K | 324.9 ± 14 J/K/mol [middle of 5 runs]
292.15 K | 325.7 ± 14 J/K/mol [middle of 5 runs]
293.15 K | 326.1 ± 14 J/K/mol [middle of 5 runs]
294.15 K | 326.6 ± 14 J/K/mol [middle of 4 runs]
295.15 K | 327 ± 14 J/K/mol [middle of 4 runs]
296.15 K | 327.2 ± 14 J/K/mol [middle of 4 runs]
297.15 K | 327.5 ± 14 J/K/mol [middle of 5 runs]
298.15 K | 327.9 ± 14 J/K/mol [middle of 4 runs]
299.15 K | 328.2 ± 14 J/K/mol [middle of 5 runs]
300.15 K | 328.7 ± 14 J/K/mol [middle of 5 runs]
301.15 K | 329.1 ± 14 J/K/mol [middle of 5 runs]
302.15 K | 329.4 ± 14 J/K/mol [middle of 5 runs]
303.15 K | 329.7 ± 14 J/K/mol [middle of 5 runs]
304.15 K | 329.9 ± 14 J/K/mol [middle of 4 runs]
305.15 K | 330 ± 14 J/K/mol [middle of 4 runs]
306.15 K | 330.7 ± 14 J/K/mol and 330.2 ± 14 J/K/mol and 329.6 ± 14 J/K/mol
307.15 K | 329.9 ± 14 J/K/mol
308.15 K | 330.2 ± 14 J/K/mol
309.15 K | 330.5 ± 14 J/K/mol
310.15 K | 330.9 ± 14 J/K/mol
311.15 K | 331.2 ± 14 J/K/mol
312.15 K | 331.6 ± 14 J/K/mol
313.15 K | 332.1 ± 14 J/K/mol
314.15 K | 332.4 ± 14 J/K/mol
315.15 K | 332.7 ± 14 J/K/mol
316.15 K | 332.8 ± 14 J/K/mol
317.15 K | 333 ± 14 J/K/mol
318.15 K | 333.1 ± 14 J/K/mol
319.15 K | 333.4 ± 14 J/K/mol
320.15 K | 333.6 ± 14 J/K/mol
321.15 K | 333.9 ± 14 J/K/mol
322.15 K | 334 ± 14 J/K/mol
323.15 K | 334.5 ± 14 J/K/mol
324.15 K | 334.9 ± 14 J/K/mol
325.15 K | 335.4 ± 14 J/K/mol
326.15 K | 335.8 ± 14 J/K/mol
